Test results: patent US20100093642A1, “NOVEL POLYPEPTIDES” (priority 2006, published 2010)
≈ marks a conversion by molar mass, not a printed value. Read-outs that look alike come from different tables or passages of the source. Residues, ends and D or L forms follow the SMILES beside them. No end group written: not given here.

Experiments:
[1] = system: human breast malignant carcinoma cell line MCF-7; assay type: cell-based; conditions: 24 hours, maximum 200 μg/ml
Experimental: (§1) The cytotoxic effects of the peptides on different human tumour cells were measured using the MTT colorimetric assay (Mosmann, 1983). […] Dissolved MIT is converted to an insoluble purple formazan by cleavage of the tetrazolium ring by dehydrogenase enzymes. This water insoluble formazan can be solubilized using isopropanol or other solvents and the dissolved material is measured spectrophotometrically. The absorbance was measured as a function of concentration of converted dye. The conversion of the soluble dye to the insoluble purple formazan is utilized in assays for measurement of cell proliferation. […] We used this assay to measure the degree of cell death caused by the peptides. MCF-7 was maintained in EMEM, A2058 in DMEM and […]-29 in RPMI-1640 medium supplemented with 10% heat inactivated […] and 1% L-glutamine-L-alanine in a humidified atmosphere of 5% CO2 at 37° C. The human embryonic fibroblast cell line, MRC-5 (which is normal fibroblasts), was cultured as a monolayer in MEM medium, under the same conditions as described for the tumour cell lines. Cells to be used in the assay were grown to a minimum of 75% confluency, trypsinated and split to single cell suspension, counted and centrifuged at 1500 rpm for 10 min. The cell pellet was resuspended to a concentration of 2×10^5 cells/ml (HT-29) or 1×10^5 (MRC-5, MCF7 and A2058) in DMEM without FBS and L-glutamine-L-alanine (assay-medium). All cell lines were routinely tested for mycoplasma infection using a PCR-based mycoplasma detection kit (MycoSensor PCR Assay Kit, Stratagene), following the supplier's instructions. All cell lines were mycoplasma free. The cytotoxicity was measured using the MTT method (Mosmann, 1983), with minor modifications. Different human tumour cells (1-2×10^5) were applied in 96-well culture plates in a volume of 100 μl DMEM medium and incubated at 37° C. for 24 hours. The medium was removed and the cells were treated with 100 μl of peptide solution (concentrations ranging from 0 to 200 μg/ml), diluted in a) RPMI-1640 medium supplemented with 5% heat inactivated FBS, or b) RPMI-1640 medium without FBS. The plates were incubated at 37° C. for 24 hours. Cells treated with Triton X-100 (1%) was used as positive control (100% killing) whereas cells plus medium only were used as negative control. […] A volume of 70 μl of the supernatant was then removed and […] (0.04 M HCl in isopropanol) added to each well. The plate was placed on a shaker for 1 hour at room temperature and read spectrophotometrically at 590 nm in a microtiter plate reader (DTX880 Multimode Detector, Beckman Coulter).

[2] = system: human embryonic lung fibroblast cell line MRC-5; assay type: cell-based; conditions: normal fibroblasts, 24 hours, maximum 200 μg/ml
Experimental: as §1

[3] = system: human colorectal adenocarcinoma cell line HT-29; assay type: cell-based; conditions: 24 hours, maximum 200 μg/ml
Experimental: as §1

[4] = system: human skin malignant melanoma cell line A2058; assay type: cell-based; conditions: 24 hours, maximum 200 μg/ml
Experimental: as §1

E. coli (ATCC 25922) = assay type: cell-based, Escherichia coli
Experimental: (§2) The antibacterial activities of the different peptides were determined by continuous monitoring of bacterial growth with a Bioscreen C microbiology reader (Labsystems Oy, Helsinki, Finland). The test was performed in 100-well flat-bottomed honeycomb plates, in which 50 μl of test fractions were incubated with 50 μl of a suspension of an actively growing culture of bacteria diluted in Mueller Hinton medium to a starting concentration of 3×10^4 cells per ml. […] [NT] 13032) and S. aureus (ATCC 9144), were chosen as test bacteria. […] Polymyxin B (Sigma, St.

[5] = system: Candida albicans (ATCC 10231); conditions: ATCC 10231, 48 h
Experimental: (§3) The various derivates of P17 (brominated and non-brominated) were tested for their ability to inhibit fungal growth of the yeast strains Saccaharomyces cerevisiae sp, Candida albicans (ATCC 10231) and Rodotorula sp., and the filamentous strains Botrytis cinerea 101, Penicillium rogveforti, and Fusarium sp. All strains, except C. albicans, were a gift from Prof. A. Tronsmo (The Norwegian University of Life Sciences, Ås, Norway). The fungi were cultivated on potato dextrose agar, supplemented with 2% glucose, at room temperature. Before antifungal testing, the fungi were dissolved in potato dextrose broth (Difco) at half-strength. Cell concentration was determined and adjusted after counting in a Bürker chamber. The filamentous fungi were filtered through a piece of cotton before counting. An aliquot of 50 μl of fungal spores (final concentration 2×10^5 spores per ml) were inoculated in microtiter plates (96 wells) along with 50 μl peptide solution. Peptides, dissolved in distilled water, were tested at final concentrations (two-fold dilutions) ranging from 50 μM to 0.1 μM. Cultures were grown in the dark (without shaking) and with a moist chamber at 25° C. (37° C. for C. albicans). Growth inhibition was determined microscopically after 48 h of incubation. MIC was determined as the lowest concentration of peptide resulting in 50% inhibition of visible growth.

Botrytis cinerea 101 = conditions: 48 h
Experimental: as §3

Saccharomyces cerevisiae = conditions: 48 h
Experimental: as §3

Pseudomonas aeruginosa = assay type: cell-based
Experimental: as §2

S. aureus (ATCC 9144) = assay type: cell-based, Staphylococcus aureus; conditions: ATCC 9144
Experimental: as §2

[6] = system: Salmonella enterica serovar typhimurium (ATCC 14028); assay: Bacterial cell viability, lux luminescence and OD600, with or without LPS; assay type: cell-based; conditions: co-incubation with 2.5 μM Aeromonas salmonicida LPS
Source text: To evaluate the effect of antimicrobial peptides on the viability of bacteria in a fast and reliable manner we used the lux CDABE operon from Photorhabdus luminescens as a reporter system in gram negative test bacteria and the modified luxABCDE operon in S. aureus (Vesterlund et al. 2004). Bacterial bioluminescence is directly dependent on metabolic activity, since reduction equivalents are needed to drive light emission. Any form of interruption of bacterial cell integrity or metabolism will therefore be detected as a reduction in light emission.
For the assay we used S. aureus (RN4220), E. coli K-12 and Salmonella enterica serovar typhimurium (ATCC 14028) transformed with the respective lux-operon containing plasmids (Vesterlund et al. 2004).
For each experiment a fresh colony was picked from Luria-Bertani plates supplemented with 10 μg/ml of erythromycin in case of S. aureus and with 100 μg/ml of ampicillin in case of E. coli and S. enterica serovar Typhimurium. Each colony was suspended in 5 ml of Müller-Hinton medium with appropriate antibiotics. The culture was incubated over night at 37° C. in a shaking incubator. The next morning 0.5 ml of this culture was transferred to 30 ml fresh MH medium in an Erlenmeyer-flask supplemented with the respective antibiotic. The flask was incubated (200 rpm shaking; 37° C.) until an OD600 of 0.5-0.8 was reached. The culture was then diluted to an OD600 of about 0.02-0.03 before transfer to the 96 well opaque plates with optical bottom (Packard ViewPlate) used for the assay.
The synthesized peptides were dissolved in water and aliquots frozen at −18° C. until use. Twofold dilutions of test peptides (final concentrations ranging from 0.31 to 80 μM) were directly prepared in 96 well microtiter plates in a volume of 10 μl in water. 90 μl is of indicator bacteria in MH medium were added directly to the prepared and pre-warmed (30 minutes at 37° C.) plate before starting the measurement in a Victor multiplate reader (Perkin Elmer) at 37° C. Both OD600 and luminescence in counts per second (cps) were followed over 5 hours in measuring intervals of 5 minutes. The plates where shaken before each measurement (20 sec.; 5 mm orbital shaking; 10 sec waiting). The growth curves and light emission curves were drawn and evaluated to determine the MIC for each indicator strain. The MIC was defined as the concentration of test compound causing more than 50% reduction in bioluminescence (cps) or optical density (OD600) after 5 hours, compared to the growth control. Cecropin P1 was used as positive control. The results (table 14a-b) confirm the results obtained in example 2, showing a pronounced antibacterial effect of the longest peptide fragments. […] The partial peptides P17 HC (1-20), both bromated and unbromated, inhibit growth only in higher concentrations.
A second plate with an otherwise similar setup (as described for the luminescence assay in example 3) was prepared, but with addition of Aeromonas salmonicida LPS to the peptide dilutions before pre-warming. The LPS end concentration in each well was approximately 2.5 μM.

[7] = system: C. glutamicum (ATCC 13032); assay type: cell-based, Corynebacterium glutamicum
Experimental: as §2

[8] = RPMI-1640 medium containing 5% FBS

Row | Molecule | Antitumoral activity IC50, MCF-7 [1, 8] | Antitumoral activity IC50, MCF-7 ([1]; serum-free RPMI-1640 medium) | IC50, MRC-5 [2, 8] | IC50, MRC-5 ([2]; serum-free RPMI-1640 medium) | Antitumoral activity IC50, HT-29 [3, 8] | Antitumoral activity IC50, HT-29 ([3]; serum-free RPMI-1640 medium) | Antitumoral activity IC50, A2058 [4, 8] | Antitumoral activity IC50, A2058 ([4]; serum-free RPMI-1640 medium) | Minimal inhibitory concentration, E. coli (E. coli (ATCC 25922)) [µM] | Minimal inhibitory concentration (MIC), Candida albicans [5] [µM] | Minimal inhibitory concentration (MIC), Botrytis cinerea (Botrytis cinerea 101) [µM] | Minimal inhibitory concentration (MIC), Saccharomyces cerevisiae (Saccharomyces cerevisiae) [µM] | Minimal inhibitory concentration, P. aeruginosa (Pseudomonas aeruginosa) [µM] | Minimal inhibitory concentration, S. aureus (S. aureus (ATCC 9144)) [µM] | MIC, more than 50% reduction in optical density, S. enterica, P + LPS ([6]; OD600, 5 hours) [µM] | MIC, more than 50% reduction in luminescence, S. enterica, P + LPS ([6]; luminescence (cps), 5 hours) [µM] | Minimal inhibitory concentration, C. glutamicum [7] [µM]
1 | NC(Cc1c[nH]c2ccc(Br)cc12)C(=O)O [5-D/L-Br-Trp, 5-Bromo-D/L-tryptophan, reference compound] | — (The symbol “—” denotes no activity within the concentration range tested.) | — (The symbol “—” denotes no activity within the concentration range tested.) | * (The symbol “*” denotes 30-50% killing at the highest concentration tested.) | * (The symbol “*” denotes 30-50% killing at the highest concentration tested.) | — (The symbol “—” denotes no activity within the concentration range tested.) | * (The symbol “*” denotes 30-50% killing at the highest concentration tested.) | — (The symbol “—” denotes no activity within the concentration range tested.) | — (The symbol “—” denotes no activity within the concentration range tested.) | – | – | – | – | – | – | – | – | –
2 | NCCCC[C@H](NC(=O)[C@H](CCCCN)NC(=O)[C@H](Cc1ccccc1)NC(=O)C(Cc1c[nH]c2ccc(Br)cc12)NC(=O)CN)C(=O)O (stereo partly shown) [P17 HC-Br (1-5)] (HELM PEPTIDE1{G.[O=C(C(Cc1c[nH]c2ccc(Br)cc12)N[*:1])[*:2]].F.K.K}$$$$V2.0; N-terminus and C-terminus assumed) | – | – | – | – | – | – | – | – | 25 (≈ 18.6 µg/mL) | >100 | >100 | >100 | >50 | >100 | – | – | –
3 | CC(C)[C@H](NC(=O)[C@H](CCCCN)NC(=O)[C@H](Cc1c[nH]cn1)NC(=O)[C@H](Cc1ccccc1)NC(=O)[C@@H](NC(=O)[C@H](CCCCN)NC(=O)[C@H](CCCCN)NC(=O)[C@H](Cc1ccccc1)NC(=O)C(Cc1c[nH]c2ccc(Br)cc12)NC(=O)CN)[C@@H](C)O)C(=O)O (stereo partly shown) [P17 HC-Br (1-10)] (HELM PEPTIDE1{G.[O=C(C(Cc1c[nH]c2ccc(Br)cc12)N[*:1])[*:2]].F.K.K.T.F.H.K.V}$$$$V2.0; N-terminus and C-terminus assumed) | – | – | – | – | – | – | – | – | 25 (≈ 33.9 µg/mL) | 25 (≈ 33.9 µg/mL) | 50 (≈ 67.8 µg/mL) | 25 (≈ 33.9 µg/mL) | >50 | >100 | 40 | 20 | –
4 | GQRGCSALGF [P17 HC (21-30)] | – | – | – | – | – | – | – | – | >100 | >100 | >100 | >100 | >100 | >100 | – | – | >100
5 | GWFKK [P17 HC (1-5)] | – | – | – | – | – | – | – | – | >100 | >100 | >100 | >100 | >100 | >100 | – | – | >100
6 | GWFKKTFHKV [P17 HC (1-10)] | – | – | – | – | – | – | – | – | 100 | 25 | 100 | 25 | 100 | >100 | – | – | 12.5
